Data from US11459315B2, “Modulators of methyl modifying enzymes, compositions and uses thereof” (Constellation Pharmaceuticals, Inc., priority 2017, dated 2022).
Where two headings read alike, the source gives them in different places.

Key:
[1] = test system: H3K27me3 mark in HeLa cells (EZH2); assay: H3K27me3 Alpha Hela Assay (AlphaLISA); format: cell-based; details: HeLa cells, 72 hrs, read-out: EZH2 Cell H3K27me3 Alpha HeLa (EC50 K27me3)
Method in brief: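 HeLa cells (1,000/well) treated with ten 3-fold compound doses for 72 h at 37 °C; lysates extracted and H3K27me3 detected by AlphaLISA with anti-K27me3 acceptor beads, biotinylated anti-H3 (3 nM) and streptavidin donor beads. EC50 from DMSO-normalized dose-response curves; duplicate plate assessed viability.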

PRC2 containing wt EZH2 = PRC2 containing wt EZH2 (Homo sapiens (Human), UniProt Q15910); assay: EZH2 biochemical assay (IC50), 3H-SAM incorporation into biotinylated H3 peptide; details: 30 pM PRC2 containing wt EZH2, 3-5 h pre-incubation
Method in brief: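 Activity was measured as ³H-methyl transfer to a biotinylated H3K27me1 peptide over 18-22 h at room temperature, with capture on streptavidin flash plates. The 30 pM wt-EZH2 PRC2 complex was first pre-incubated 3-5 h with compound, 450 nM SAM/450 nM ³H-SAM and 2 µM H3K27me3 activator (pH 8.5, 0.8% DMSO). Four-parameter fits gave IC50.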

Chain of PRC2 containing wt EZH2 (Q15910 whole entry): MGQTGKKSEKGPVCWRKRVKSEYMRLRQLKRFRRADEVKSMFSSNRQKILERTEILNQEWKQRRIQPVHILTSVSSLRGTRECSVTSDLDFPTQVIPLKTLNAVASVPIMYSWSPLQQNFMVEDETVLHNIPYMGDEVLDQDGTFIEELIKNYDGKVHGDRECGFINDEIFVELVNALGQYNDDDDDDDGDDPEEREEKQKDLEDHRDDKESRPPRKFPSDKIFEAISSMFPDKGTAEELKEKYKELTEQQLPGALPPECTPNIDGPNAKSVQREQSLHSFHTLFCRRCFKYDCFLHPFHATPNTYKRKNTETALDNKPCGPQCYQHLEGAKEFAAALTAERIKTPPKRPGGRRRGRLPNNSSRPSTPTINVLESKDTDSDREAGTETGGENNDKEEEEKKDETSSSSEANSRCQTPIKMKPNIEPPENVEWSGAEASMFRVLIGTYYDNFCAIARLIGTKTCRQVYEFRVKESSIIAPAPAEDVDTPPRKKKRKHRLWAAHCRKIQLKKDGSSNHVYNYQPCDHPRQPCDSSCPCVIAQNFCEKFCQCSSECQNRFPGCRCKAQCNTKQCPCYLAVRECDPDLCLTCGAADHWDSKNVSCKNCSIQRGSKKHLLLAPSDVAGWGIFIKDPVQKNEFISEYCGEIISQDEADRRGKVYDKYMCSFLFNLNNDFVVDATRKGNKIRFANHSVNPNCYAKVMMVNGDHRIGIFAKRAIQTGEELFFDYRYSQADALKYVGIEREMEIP
Chain of PRC2 containing wt EZH2 (O75530 whole entry partner): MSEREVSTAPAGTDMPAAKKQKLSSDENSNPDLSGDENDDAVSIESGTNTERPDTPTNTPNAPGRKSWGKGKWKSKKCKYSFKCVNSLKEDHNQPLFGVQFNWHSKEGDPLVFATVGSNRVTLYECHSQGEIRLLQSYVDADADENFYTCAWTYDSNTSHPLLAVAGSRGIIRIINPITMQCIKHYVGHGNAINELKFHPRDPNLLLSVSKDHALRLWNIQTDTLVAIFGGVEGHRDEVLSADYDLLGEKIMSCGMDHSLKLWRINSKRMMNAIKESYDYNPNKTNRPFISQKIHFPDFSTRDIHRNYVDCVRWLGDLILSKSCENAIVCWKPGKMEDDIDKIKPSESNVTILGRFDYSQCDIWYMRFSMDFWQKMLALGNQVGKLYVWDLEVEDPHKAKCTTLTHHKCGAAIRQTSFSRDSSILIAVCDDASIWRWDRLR
Chain of PRC2 containing wt EZH2 (Q15022 whole entry partner): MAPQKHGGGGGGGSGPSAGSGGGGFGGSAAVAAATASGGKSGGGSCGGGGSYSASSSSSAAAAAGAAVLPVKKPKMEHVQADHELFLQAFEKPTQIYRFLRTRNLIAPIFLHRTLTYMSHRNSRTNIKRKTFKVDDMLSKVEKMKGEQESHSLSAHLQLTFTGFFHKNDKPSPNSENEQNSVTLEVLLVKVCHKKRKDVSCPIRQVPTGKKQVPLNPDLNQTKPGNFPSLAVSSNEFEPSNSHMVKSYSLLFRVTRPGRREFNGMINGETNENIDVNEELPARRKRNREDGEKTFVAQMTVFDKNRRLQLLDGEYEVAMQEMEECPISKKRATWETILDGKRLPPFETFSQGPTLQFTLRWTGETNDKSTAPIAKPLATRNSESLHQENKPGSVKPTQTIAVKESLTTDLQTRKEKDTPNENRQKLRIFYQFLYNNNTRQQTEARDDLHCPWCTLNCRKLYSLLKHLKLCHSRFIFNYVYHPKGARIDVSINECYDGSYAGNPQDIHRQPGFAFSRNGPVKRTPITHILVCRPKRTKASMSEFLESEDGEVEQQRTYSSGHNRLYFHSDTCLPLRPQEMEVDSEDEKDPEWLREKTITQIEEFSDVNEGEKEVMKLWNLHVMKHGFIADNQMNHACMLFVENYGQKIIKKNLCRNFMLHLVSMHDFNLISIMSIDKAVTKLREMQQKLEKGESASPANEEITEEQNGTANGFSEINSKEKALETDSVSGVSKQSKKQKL
Chain of PRC2 containing wt EZH2 (Q09028 whole entry partner): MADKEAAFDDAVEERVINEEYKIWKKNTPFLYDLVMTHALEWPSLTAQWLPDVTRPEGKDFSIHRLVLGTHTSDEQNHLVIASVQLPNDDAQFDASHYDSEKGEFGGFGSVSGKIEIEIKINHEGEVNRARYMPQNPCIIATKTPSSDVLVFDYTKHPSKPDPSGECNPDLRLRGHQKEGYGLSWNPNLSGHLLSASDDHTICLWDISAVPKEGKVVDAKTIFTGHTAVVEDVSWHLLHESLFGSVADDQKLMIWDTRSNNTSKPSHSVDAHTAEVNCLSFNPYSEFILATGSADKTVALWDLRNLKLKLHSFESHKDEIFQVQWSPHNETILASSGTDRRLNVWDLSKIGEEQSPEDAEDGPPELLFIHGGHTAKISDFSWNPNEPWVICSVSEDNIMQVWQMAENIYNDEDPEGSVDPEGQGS
Chain of PRC2 containing wt EZH2 (Q6ZN18 whole entry partner): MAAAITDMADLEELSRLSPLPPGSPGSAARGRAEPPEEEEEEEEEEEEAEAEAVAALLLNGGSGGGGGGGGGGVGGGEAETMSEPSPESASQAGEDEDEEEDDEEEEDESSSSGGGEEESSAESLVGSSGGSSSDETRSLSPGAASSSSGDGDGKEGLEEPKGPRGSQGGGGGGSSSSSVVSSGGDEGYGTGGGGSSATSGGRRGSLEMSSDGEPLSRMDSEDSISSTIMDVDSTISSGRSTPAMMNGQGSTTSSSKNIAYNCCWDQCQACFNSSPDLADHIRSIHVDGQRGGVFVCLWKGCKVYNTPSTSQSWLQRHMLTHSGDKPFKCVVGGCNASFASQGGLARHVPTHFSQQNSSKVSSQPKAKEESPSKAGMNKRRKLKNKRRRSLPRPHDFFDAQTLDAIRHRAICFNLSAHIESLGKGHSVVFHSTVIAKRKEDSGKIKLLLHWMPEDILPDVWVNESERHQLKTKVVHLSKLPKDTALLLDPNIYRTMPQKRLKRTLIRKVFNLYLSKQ

SMILES | EC50 ([1]; Homo sapiens, HeLa, 72 h) [nM] | IC50 (PRC2 containing wt EZH2; read-out: EZH2 (IC50)) [nM] | EC50 [1] [nM] | IC50 (PRC2 containing wt EZH2; EZH2 (IC50)) [nM]
CSc1cc(C)[nH]c(=O)c1CNC(=O)c1c(C)n([C@H](C)C2CCC(NC3(CF)COC3)CC2)c2ncccc12 (single isomer, unassigned) [155 (isomer 1)] | < 10 | < 0.5 |  | 
CSc1cc(C)[nH]c(=O)c1CNC(=O)c1c(C)n([C@H](C)C2CCC(NC3(CF)COC3)CC2)c2ncccc12 (single isomer, unassigned) [155 (isomer 2)] |  | 0.5 to 5 | 10 to 100 | 
CSc1cc(C)[nH]c(=O)c1CNC(=O)c1c(C)n([C@H](C)C2CCC(NC3(CF)COC3)CC2)c2ncncc12 (single isomer, unassigned) [156 (isomer 1)] | < 10 | < 0.5 |  | 
CSc1cc(C)[nH]c(=O)c1CNC(=O)c1c(C)n([C@H](C)C2CCC(NC3(CF)COC3)CC2)c2ncncc12 (single isomer, unassigned) [156 (isomer 2)] |  | < 0.5 | 10 to 100 | 
CSc1cc(C)[nH]c(=O)c1CNC(=O)c1c(C)n([C@H](C)C2CCC(NC3(CO)COC3)CC2)c2cc(F)ccc12 (single isomer, unassigned) [159 (isomer 1)] | 10 to 100 | < 0.5 |  | 
CSc1cc(C)[nH]c(=O)c1CNC(=O)c1c(C)n([C@H](C)C2CCC(NC3(CO)COC3)CC2)c2cc(F)ccc12 (single isomer, unassigned) [159 (isomer 2)] |  | < 0.5 | 10 to 100 | 
CSc1cc(C)[nH]c(=O)c1CNC(=O)c1c(C)n([C@H](C)C2CCC(N3CC(S(C)(=O)=O)C3)CC2)c2ccccc12 (single isomer, unassigned) [162 (isomer 1)] |  | < 0.5 | 10 to 100 | 
CSc1cc(C)[nH]c(=O)c1CNC(=O)c1c(C)n([C@H](C)C2CCC(N3CC(S(C)(=O)=O)C3)CC2)c2ccccc12 (single isomer, unassigned) [162 (isomer 2)] |  | 0.5 to 5 | > 100 | 
CSc1cc(C)[nH]c(=O)c1CNC(=O)c1c(C)n([C@H](C)C2CCC(NC3(C(F)(F)F)COC3)CC2)c2ncccc12 (single isomer, unassigned) [163 (isomer 1)] | < 10 | < 0.5 |  | 
CSc1cc(C)[nH]c(=O)c1CNC(=O)c1c(C)n([C@H](C)C2CCC(NC3(C(F)(F)F)COC3)CC2)c2ncccc12 (single isomer, unassigned) [163 (isomer 2)] |  | 0.5 to 5 | 10 to 100 | 
CSc1cc(C)[nH]c(=O)c1CNC(=O)c1c(C)n([C@H](C)C2CCC(NC3(C(F)(F)F)COC3)CC2)c2ncncc12 (single isomer, unassigned) [164 (isomer 1)] | < 10 | < 0.5 |  | 
CSc1cc(C)[nH]c(=O)c1CNC(=O)c1c(C)n([C@H](C)C2CCC(NC3(C(F)(F)F)COC3)CC2)c2ncncc12 (single isomer, unassigned) [164 (isomer 2)] |  | 0.5 to 5 | 10 to 100 | 
CSc1cc(C)[nH]c(=O)c1CNC(=O)c1c(C)n([C@H](C)C2CCC(N3CC(OC4CC4)C3)CC2)c2ncccc12 (single isomer, unassigned) [Example 30] | < 10 | < 0.5 |  | 
CSc1cc(C)[nH]c(=O)c1CNC(=O)c1c(C)n([C@H](C)C2CCC(NC3(C(F)(F)F)COC3)CC2)c2ccccc12 (single isomer, unassigned) [Example 130] | < 10 | < 0.5 |  | 
CSc1cc(C)[nH]c(=O)c1CNC(=O)c1c(C)n([C@H](C)[C@H]2OC[C@@H](N3CCC34COC4)CO2)c2ccccc12 (single isomer, unassigned; isomer 1) [150 (isomer 1)] |  | 0.5 to 5 | > 100 | 
CSc1cc(C)[nH]c(=O)c1CNC(=O)c1c(C)n([C@@H](C)[C@H]2OC[C@@H](N3CCC34COC4)CO2)c2ccccc12 (single isomer, unassigned; isomer 1) [151 (isomer 1)] |  | 0.5 to 5 | > 100 | 
CSc1cc(C)[nH]c(=O)c1CNC(=O)c1c(C)n([C@H](C)[C@H]2OC[C@H](N3CCC34COC4)CO2)c2ccccc12 (single isomer, unassigned; isomer 2) [150 (isomer 2)] |  | < 0.5 | < 10 | 
CSc1cc(C)[nH]c(=O)c1CNC(=O)c1c(C)n([C@@H](C)[C@H]2OC[C@H](N3CCC34COC4)CO2)c2ccccc12 (single isomer, unassigned; isomer 2) [151 (isomer 2)] |  | > 5 | > 100 | 
CSc1cc(C)[nH]c(=O)c1CNC(=O)c1c(C)n([C@H](C)C23CC(NC4COC4)(C2)C3)c2ccccc12 [Example 8, (R)-2-methyl-N-((6-methyl-4-(methylthio)-2-oxo-1,2-dihydropyridin-3-yl)methyl)-1-(1-(3-(oxetan-3-ylamino)bicyclo[1.1.1]pentan-1-yl)ethyl)-1H-indole-3-carboxamide] | < 10 | < 0.5 |  | 
CSc1cc(C)[nH]c(=O)c1CNC(=O)c1c(C)n([C@H](C)C23CC(N(C)C4COC4)(C2)C3)c2ccccc12 [Example 9, (R)-2-methyl-1-(1-(3-(methyl(oxetan-3-yl)amino)bicyclo[1.1.1]pentan-1-yl)ethyl)-N-((6-methyl-4-(methylthio)-2-oxo-1,2-dihydropyridin-3-yl)methyl)-1H-indole-3-carboxamide] | < 10 | < 0.5 |  | 
CSc1cc(C)[nH]c(=O)c1CNC(=O)c1c(C)n([C@H](C)C23CC(N(C)CC(F)(F)F)(C2)C3)c2ccccc12 [Example 10, (R)-2-methyl-1-(1-(3-(methyl(2,2,2-trifluoroethyl)amino)bicyclo[1.1.1]pentan-1-yl)ethyl)-N-((6-methyl-4-(methylthio)-2-oxo-1,2-dihydropyridin-3-yl)methyl)-1H-indole-3-carboxamide] | < 10 | < 0.5 |  | 
CSc1cc(C)[nH]c(=O)c1CNC(=O)c1c(C)n([C@H](C)C2CCN(CC(C)(C)O)CC2)c2ccccc12 [Example 11, (R)-1-(1-(1-(2-hydroxy-2-methylpropyl)piperidin-4-yl)ethyl)-2-methyl-N-((6-methyl-4-(methylthio)-2-oxo-1,2-dihydropyridin-3-yl)methyl)-1H-indole-3-carboxamide] | 10 to 100 |  |  | < 0.5
CSc1cc(C)[nH]c(=O)c1CNC(=O)c1c(C)n([C@H](C)C2CCN(CC(F)(F)F)CC2)c2ccccc12 [Example 12, (R)-2-methyl-N-((6-methyl-4-(methylthio)-2-oxo-1,2-dihydropyridin-3-yl)methyl)-1-(1-(1-(2,2,2-trifluoroethyl)piperidin-4-yl)ethyl)-1H-indole-3-carboxamide] | < 10 |  |  | < 0.5
CSc1cc(C)[nH]c(=O)c1CNC(=O)c1c(C)n([C@H](C)C2CCOCC2)c2ccccc12 [Example 13, (R)-2-methyl-N-((6-methyl-4-(methylthio)-2-oxo-1,2-dihydropyridin-3-yl)methyl)-1-(1-(tetrahydro-2H-pyran-4-yl)ethyl)-1H-indole-3-carboxamide] | < 10 |  |  | < 0.5
CNC1COC([C@@H](C)n2c(C)c(C(=O)NCc3c(SC)cc(C)[nH]c3=O)c3ccccc32)OC1 (stereo partly drawn) [Example 17, (R)-2-methyl-N-((6-methyl-4-(methylthio)-2-oxo-1,2-dihydropyridin-3-yl)methyl)-1-(1-(5-(methylamino)-1,3-dioxan-2-yl)ethyl)-1H-indole-3-carboxamide] | < 10 | < 0.5 |  | 
